Laboratory results published in patent US9820977B2, “Systemic treatment of blood-sucking and blood-consuming parasites by oral administration of a parasiticidal agent” (priority 2008, dated 2017).
“And” between values parts separate entries of the source, which are not always exact repeats. Equal values may be shown once.

How the values were obtained:
[1] = given orally to control fleas; cited from earlier work
ticks = settings: given topically, imidacloprid alone; cited from earlier work
Ctenocephalides felis = assay: Flea infestation on dogs, oral dosing, pan and comb counts; assay type: in vivo; settings: for Mean Efficacy / 1 hour pan counts / 3 hour pan counts / Comb Count Day 1 / # Live Fleas Removed / 4 hour pan counts / 6 hour pan counts / Efficacy, Comb Count Day 2 (reinfested) / Efficacy, Comb Count Day 5 (reinfested) / Comb Count Day 2 (reinfested) / Comb Count Day 5 (reinfested) / Efficacy, Comb Count Day 1 / Average 1 hour pan counts / Average 3 hour pan counts: dogs; for Mean Efficacy / Efficacy, Comb Count Day 2 (reinfested) / Efficacy, Comb Count Day 5 (reinfested) / Efficacy, Comb Count Day 1: fleas
Experimental: Flea Species: Ctenocephalides felis
Number: ˜100 unfed adults per dog per infestation with a sex ratio of ˜50/50
(§1) Species/Strain/Source: Dog/beagles/Stillmeadow, Inc. dog colony
(§2) Body weights were recorded during the pretest period. Six dogs were selected for study, weighed and randomly assigned to two groups of three and infested with either 100 fleas or 50 ticks. For the flea study whose results are shown in Table 3, repeat 100 flea infestations were performed on Days 2 and 5, without additional dosing. For all studies, the Group I dogs served as untreated controls. All animals except those in Group II of the study whose results are reported in Table 1 were dosed orally with the test article in gelatin capsules. The Group II, Table 1 animals received 5 mg of imidacloprid active in a chewable drug delivery vehicle.
(§3) For blood collections, drawn blood was collected into lavender top Vacutainer® tubes. The tubes were centrifuged and plasma was drawn off and frozen at approximately −20° C. pending possible future shipment to the sponsor for analysis of levels of test article in the plasma. Comb and pan counts were conducted as noted in the Tables, following dosing. The number of live fleas and ticks removed during the comb counts was recorded as were, where noted in the Tables, dead tick counts.

Rhipicephalus sanguineus = assay: Tick infestation on dogs, oral dosing, tick counts; assay type: in vivo; settings: for Attached Dead Day 2 / Dead Attached Day 6 / Dead Free Day 6 / Live Attached Day 6 / Live Free Day 6 / Ticks Removed Day 2 / Mean Efficacy / Efficacy / Dead Ticks / Live Ticks / Comb Count Day 3 Dead / Comb Count Day 3 Live / Hand Count Day 2: dogs; for Mean Efficacy / Efficacy / Comb Count Day 3 Dead / Comb Count Day 3 Live / Hand Count Day 2: ticks; for Efficacy: Day 6
Experimental: Tick Species: Rhipicephalus sanguineus
Number: ˜50 unfed adults per dog per infestation (˜25 male and ˜25 females)
as §1, §2, §3

[2] = oral 0.5 mg/kg, individual animals, 0.5 mg/kg
[3] = oral 1.0 mg/kg, individual animals, 1 mg/kg
[4] = oral 3.0 mg/kg single dose, group Mean
[5] = oral 3.0 mg/kg single dose, individual animals, 3 mg/kg
[6] = oral 3.0 mg/kg, individual animals, 3 mg/kg
[7] = oral 6.0 mg/kg single dose, group Mean
[8] = oral 6.0 mg/kg, individual animals, 6 mg/kg
[9] = oral 10.0 mg/kg single dose, group Mean
[10] = oral 10.0 mg/kg, individual animals, 10 mg/kg
[11] = oral 3 mg/kg, individual animals, 3 mg/kg
[12] = oral 10 mg/kg, individual animals, 10 mg/kg
[13] = oral 15 mg/kg, Day 1, group Mean
[14] = oral 15 mg/kg, Day 1, individual animals, 15 mg/kg
[15] = oral 22 mg/kg, Day 1, group Mean
[16] = oral 22 mg/kg, Day 1, individual animals, 22 mg/kg
[17] = oral 30 mg/kg, Day 1, group Mean
[18] = oral 30 mg/kg, Day 1, individual animals, 30 mg/kg
[19] = oral 30 mg/kg, individual animals, 30 mg/kg

Q: For `N#Cc1nn(-c2c(Cl)cc(C(F)(F)F)cc2Cl)c(N)c1[S+]([O-])C(F)(F)F` (centres unmarked) [Fipronil, 5-amino-1-[2,6-dichloro-4-(trifluoromethyl)phenyl]-4-[(trifluoromethyl)sulfinyl]-1H-pyrazole-3-carbonitrile], which emesis [1] is on record?
A: known to cause emesis

Q: What does the source list for `O=[N+]([O-])N=C1NCCN1Cc1ccc(Cl)nc1` [Imidacloprid, 1-[(6-chloro-3-pyridinyl)methyl]-N-nitro-2-imidazolidinimine]?
A: effect on ticks (ticks): little or no effect on ticks; Mean Efficacy (Ctenocephalides felis; oral 0.25 mg/kg, Day 1): 100.0; 1 hour pan counts (Ctenocephalides felis; oral 0.25 mg/kg, group Mean): 0.0; 3 hour pan counts (Ctenocephalides felis; oral 0.25 mg/kg, group Mean): 5.5; 1 hour pan counts (Ctenocephalides felis; oral 0.25 mg/kg, individual animals): 0; 3 hour pan counts (Ctenocephalides felis; oral 0.25 mg/kg, individual animals, 0.25 mg/kg): 2 and 9; Comb Count Day 1 (Ctenocephalides felis; oral 0.25 mg/kg, live fleas, group Mean): 0.0; Comb Count Day 1 (Ctenocephalides felis; oral 0.25 mg/kg, live fleas, individual animals): 0; # Live Fleas Removed (Ctenocephalides felis; oral 0.5 mg/kg, column after 4 hour pan counts, group Mean): 22.7; # Live Fleas Removed (Ctenocephalides felis; oral 0.5 mg/kg, column after 4 hour pan counts, individual animals, 0.5 mg/kg): 31 and 2 and 35; # Live Fleas Removed (Ctenocephalides felis; oral 0.5 mg/kg, column after 6 hour pan counts, group Mean): 0.0; # Live Fleas Removed (Ctenocephalides felis; oral 0.5 mg/kg, column after 6 hour pan counts, individual animals): 0; Mean Efficacy (Ctenocephalides felis; oral 0.5 mg/kg): 100.0; 4 hour pan counts (Ctenocephalides felis; oral 0.5 mg/kg, group Mean): 0.0; 6 hour pan counts (Ctenocephalides felis; oral 0.5 mg/kg, group Mean): 39.7; 4 hour pan counts (Ctenocephalides felis; [2]): 5 and 45 and 15; 6 hour pan counts (Ctenocephalides felis; [2]): 39 and 33 and 47; # Live Fleas Removed (Ctenocephalides felis; oral 1.0 mg/kg, column after 4 hour pan counts, group Mean): 9.0; # Live Fleas Removed (Ctenocephalides felis; oral 1.0 mg/kg, column after 4 hour pan counts, individual animals, 1 mg/kg): 4 and 12 and 11; # Live Fleas Removed (Ctenocephalides felis; oral 1.0 mg/kg, column after 6 hour pan counts, group Mean): 0.0; # Live Fleas Removed (Ctenocephalides felis; oral 1.0 mg/kg, column after 6 hour pan counts, individual animals): 0; Mean Efficacy (Ctenocephalides felis; oral 1.0 mg/kg): 100.0; 4 hour pan counts (Ctenocephalides felis; oral 1.0 mg/kg, group Mean): 41.7; 6 hour pan counts (Ctenocephalides felis; oral 1.0 mg/kg, group Mean): 44.0; 4 hour pan counts (Ctenocephalides felis; [3]): 44 and 41 and 40; 6 hour pan counts (Ctenocephalides felis; [3]): 35 and 44 and 53; Efficacy, Comb Count Day 2 (reinfested) (Ctenocephalides felis; oral 3.0 mg/kg single dose): 68.1; Efficacy, Comb Count Day 5 (reinfested) (Ctenocephalides felis; oral 3.0 mg/kg single dose): 42.1; Comb Count Day 2 (reinfested) (Ctenocephalides felis; [4]): 22.3; Comb Count Day 5 (reinfested) (Ctenocephalides felis; [4]): 25.3; Comb Count Day 2 (reinfested) (Ctenocephalides felis; [5]): 15 and 40 and 12; Comb Count Day 5 (reinfested) (Ctenocephalides felis; [5]): 32 and 80 and 42; Efficacy, Comb Count Day 1 (Ctenocephalides felis; oral 3.0 mg/kg): 100.0; Average 1 hour pan counts (Ctenocephalides felis; oral 3.0 mg/kg, group Mean): 1.3; Average 3 hour pan counts (Ctenocephalides felis; oral 3.0 mg/kg, group Mean): 9.0; Comb Count Day 1 (Ctenocephalides felis; oral 3.0 mg/kg, group Mean): 0.0; Comb Count Day 1 (Ctenocephalides felis; oral 3.0 mg/kg, individual animals): 0; Average 1 hour pan counts (Ctenocephalides felis; [6]): 2 and 1 (2×); Average 3 hour pan counts (Ctenocephalides felis; [6]): 7 and 9 and 11; Efficacy, Comb Count Day 2 (reinfested) (Ctenocephalides felis; oral 6.0 mg/kg single dose): 100.0; Efficacy, Comb Count Day 5 (reinfested) (Ctenocephalides felis; oral 6.0 mg/kg single dose): 79.3; Comb Count Day 2 (reinfested) (Ctenocephalides felis; [7]): 0.0; Comb Count Day 5 (reinfested) (Ctenocephalides felis; [7]): 12.1; Comb Count Day 2 (reinfested) (Ctenocephalides felis; oral 6.0 mg/kg single dose, individual animals): 0; Comb Count Day 5 (reinfested) (Ctenocephalides felis; oral 6.0 mg/kg single dose, individual animals, 6 mg/kg): 7 and 17 and 31; Efficacy, Comb Count Day 1 (Ctenocephalides felis; oral 6.0 mg/kg): 100.0; Average 1 hour pan counts (Ctenocephalides felis; oral 6.0 mg/kg, group Mean): 7.6; Average 3 hour pan counts (Ctenocephalides felis; oral 6.0 mg/kg, group Mean): 19.6; Comb Count Day 1 (Ctenocephalides felis; oral 6.0 mg/kg, group Mean): 0.0; Comb Count Day 1 (Ctenocephalides felis; oral 6.0 mg/kg, individual animals): 0; Average 1 hour pan counts (Ctenocephalides felis; [8]): 5 and 6 and 12; Average 3 hour pan counts (Ctenocephalides felis; [8]): 13 and 22 and 27; Efficacy, Comb Count Day 2 (reinfested) (Ctenocephalides felis; oral 10.0 mg/kg single dose): 100.0; Efficacy, Comb Count Day 5 (reinfested) (Ctenocephalides felis; oral 10.0 mg/kg single dose): 97.7; Comb Count Day 2 (reinfested) (Ctenocephalides felis; [9]): 0.0; Comb Count Day 5 (reinfested) (Ctenocephalides felis; [9]): 2.0; Comb Count Day 2 (reinfested) (Ctenocephalides felis; oral 10.0 mg/kg single dose, individual animals): 0; Comb Count Day 5 (reinfested) (Ctenocephalides felis; oral 10.0 mg/kg single dose, individual animals, 10 mg/kg): 0 and 5 and 1; Efficacy, Comb Count Day 1 (Ctenocephalides felis; oral 10.0 mg/kg): 100.0; Average 1 hour pan counts (Ctenocephalides felis; oral 10.0 mg/kg, group Mean): 11.3; Average 3 hour pan counts (Ctenocephalides felis; oral 10.0 mg/kg, group Mean): 19.0; Comb Count Day 1 (Ctenocephalides felis; oral 10.0 mg/kg, group Mean): 0.0; Comb Count Day 1 (Ctenocephalides felis; oral 10.0 mg/kg, individual animals): 0; Average 1 hour pan counts (Ctenocephalides felis; [10]): 10 and 16 and 8; Average 3 hour pan counts (Ctenocephalides felis; [10]): 14 and 25 and 18; efficacious against pre-existing C. felis infestations (Ctenocephalides felis; orally dosed at a rate as low as 0.25 mg/kg): 100%; effective against a flea infestation on treated animals (Ctenocephalides felis; single oral dose 0.25 mg/kg, within as little as an hour of administration): 100%; Attached Dead Day 2 (Rhipicephalus sanguineus; oral 3 mg/kg, group Mean): 1; Dead Attached Day 6 (Rhipicephalus sanguineus; oral 3 mg/kg, group Mean): 0; Dead Free Day 6 (Rhipicephalus sanguineus; oral 3 mg/kg, group Mean): 0.0; Live Attached Day 6 (Rhipicephalus sanguineus; oral 3 mg/kg, group Mean): 8; Live Free Day 6 (Rhipicephalus sanguineus; oral 3 mg/kg, group Mean): 0; Ticks Removed Day 2 (Rhipicephalus sanguineus; oral 3 mg/kg, group Mean): 18; Dead Free Day 6 (Rhipicephalus sanguineus; oral 3 mg/kg, individual animals): 0; Attached Dead Day 2 (Rhipicephalus sanguineus; [11]): 1 (2×) and 0; Dead Attached Day 6 (Rhipicephalus sanguineus; [11]): 2 (2×) and 0; Live Attached Day 6 (Rhipicephalus sanguineus; [11]): 6 and 4 and 13; Live Free Day 6 (Rhipicephalus sanguineus; [11]): 1 and 0 (2×); Ticks Removed Day 2 (Rhipicephalus sanguineus; [11]): 17 and 8 and 28; Mean Efficacy (Rhipicephalus sanguineus; oral 3 mg/kg, Day 2): 15.9; Efficacy (Rhipicephalus sanguineus; oral 3 mg/kg): 61.0; Attached Dead Day 2 (Rhipicephalus sanguineus; oral 10 mg/kg, group Mean): 3; Dead Attached Day 6 (Rhipicephalus sanguineus; oral 10 mg/kg, group Mean): 0; Dead Free Day 6 (Rhipicephalus sanguineus; oral 10 mg/kg, group Mean): 0; Live Attached Day 6 (Rhipicephalus sanguineus; oral 10 mg/kg, group Mean): 17; Live Free Day 6 (Rhipicephalus sanguineus; oral 10 mg/kg, group Mean): 0; Ticks Removed Day 2 (Rhipicephalus sanguineus; oral 10 mg/kg, group Mean): 20; Dead Free Day 6 (Rhipicephalus sanguineus; oral 10 mg/kg, individual animals): 0; Attached Dead Day 2 (Rhipicephalus sanguineus; [12]): 2 and 0 and 6; Dead Attached Day 6 (Rhipicephalus sanguineus; [12]): 1 and 0 (2×); Live Attached Day 6 (Rhipicephalus sanguineus; [12]): 14 and 8 and 28; Live Free Day 6 (Rhipicephalus sanguineus; [12]): 1 and 0 (2×); Ticks Removed Day 2 (Rhipicephalus sanguineus; [12]): 16 and 22 and 23; Mean Efficacy (Rhipicephalus sanguineus; oral 10 mg/kg, Day 2): 3.2; Efficacy (Rhipicephalus sanguineus; oral 10 mg/kg): 15.3; Dead Ticks (Rhipicephalus sanguineus; [13]): 1; Live Ticks (Rhipicephalus sanguineus; [13]): 15; Dead Ticks (Rhipicephalus sanguineus; [14]): 0 and 3 and 1; Live Ticks (Rhipicephalus sanguineus; [14]): 33 and 2 and 10; Mean Efficacy (Rhipicephalus sanguineus; oral 15 mg/kg, Day 1): 48.9; Dead Ticks (Rhipicephalus sanguineus; [15]): 1; Live Ticks (Rhipicephalus sanguineus; [15]): 9; Dead Ticks (Rhipicephalus sanguineus; [16]): 2 and 1 and 0; Live Ticks (Rhipicephalus sanguineus; [16]): 3 and 12 and 13; Mean Efficacy (Rhipicephalus sanguineus; oral 22 mg/kg, Day 1): 68.2; Dead Ticks (Rhipicephalus sanguineus; [17]): 2; Live Ticks (Rhipicephalus sanguineus; [17]): 11; Dead Ticks (Rhipicephalus sanguineus; [18]): 7 and 0 (2×); Live Ticks (Rhipicephalus sanguineus; [18]): 10 and 12 and 11; Mean Efficacy (Rhipicephalus sanguineus; oral 30 mg/kg, Day 1): 62.5; Mean Efficacy (Rhipicephalus sanguineus; oral 30 mg/kg, Day 3): 79.5; Comb Count Day 3 Dead (Rhipicephalus sanguineus; oral 30 mg/kg, group Mean): 1; Comb Count Day 3 Live (Rhipicephalus sanguineus; oral 30 mg/kg, group Mean): 5; Hand Count Day 2 (Rhipicephalus sanguineus; oral 30 mg/kg, group Mean): 9; Comb Count Day 3 Dead (Rhipicephalus sanguineus; [19]): 0 (2×) and 2; Comb Count Day 3 Live (Rhipicephalus sanguineus; [19]): 6 and 5 and 4; Hand Count Day 2 (Rhipicephalus sanguineus; [19]): 8 and 13 and 7; effective against a tick infestation on treated animals (Rhipicephalus sanguineus; single oral dose 3 mg/kg, within as little as 24-48 hours of administration): at least 60%
